Entries after “also recorded” stand apart in the source; their conditions may differ. Read-outs that look alike come from different tables or passages of the source.
Assays:
E. coli K-12 MG1655 = format: cell-based
[1] = tested on: Escherichia coli K-12 MG1655; assay: Screening for tolerance in wild-type cells: growth in varying concentrations of diols (Biolector); format: cell-based; details: for toxicity threshold: E. coli; for Maximum concentration for robust growth / growth observed at maximum concentration: K-12 MG1655
K-12 MG1655 = format: cell-based, Escherichia coli
[2] = growth rate of K-12 MG1655, diol 0.5% (v/v), M9+1% glucose, 37° C.
[3] = growth rate of K-12 MG1655, diol 1% (v/v)
[4] = growth rate of K-12 MG1655, diol 2% (v/v)
[5] = growth rate of K-12 MG1655, diol 3.5% (v/v)
[6] = growth rate of K-12 MG1655, diol 5% (v/v)
[7] = growth rate of K-12 MG1655, diol 7.5% (v/v)
[8] = growth rate of K-12 MG1655, diol 10% (v/v)
[9] = lag time of K-12 MG1655, diol 0.5% (v/v)
[10] = lag time of K-12 MG1655, diol 1% (v/v)
[11] = lag time of K-12 MG1655, diol 2% (v/v)
[12] = lag time of K-12 MG1655, diol 3.5% (v/v)
[13] = lag time of K-12 MG1655, diol 5% (v/v)
[14] = K-12 MG1655, diol 1 % (v/v), Growth Profiler
[15] = K-12 MG1655, diol 2 % (v/v), Growth Profiler
[16] = K-12 MG1655, diol 3 % (v/v), Growth Profiler
[17] = K-12 MG1655, diol 4 % (v/v), Growth Profiler
[18] = K-12 MG1655, diol 5 % (v/v), Growth Profiler
[19] = K-12 MG1655, diol 6 % (v/v), Growth Profiler
[20] = K-12 MG1655, diol 7.5 % (v/v), Growth Profiler

Compound: OCCCCO [1,4-butanediol]
- growth inhibition of E. coli K-12 MG1655 (in words) (E. coli K-12 MG1655): elicited growth inhibition

Compound: CC(O)C(C)O (centres unmarked) [2,3-butanediol]
- toxicity threshold [1]: 7.5 % (v/v)
- toxicity threshold ([1]; conversion of 7.5% (v/v)): 74.0 g/L
- Maximum concentration for robust growth [1]: 5%
- μ, mean [1, 2]: 0.944 h⁻¹
- μ, mean [1, 3]: 0.791 h⁻¹
- μ, mean [1, 4]: 0.754 h⁻¹
- μ, mean [1, 5]: 0.498 h⁻¹
- μ, mean [1, 6]: 0.265 h⁻¹
- μ, mean [1, 7]: 0.054 h⁻¹
- μ, mean [1, 8]: 0.000 h⁻¹
- tlag, mean [1, 9]: 2.2 h
- tlag, mean [1, 10]: 1.8 h
- tlag, mean [1, 11]: 2.1 h
- tlag, mean [1, 12]: 1.6 h
- tlag, mean [1, 13]: -1.2 h

Compound: OCCCCCO [1,5-pentanediol]
- growth observed at maximum concentration [1]: 3.5%
- μ, mean [1, 2]: 0.613 h⁻¹
- μ, mean [1, 3]: 0.569 h⁻¹
- μ, mean [1, 4]: 0.437 h⁻¹
- μ, mean [1, 5]: 0.158 h⁻¹
- μ, mean [1, 6]: 0.000 h⁻¹
- μ, mean [1, 7]: 0.000 h⁻¹
- μ, mean [1, 8]: 0.000 h⁻¹
- tlag, mean [1, 9]: 0.3 h
- tlag, mean [1, 10]: 0.5 h
- tlag, mean [1, 11]: 0.9 h
- tlag, mean [1, 12]: -8.8 h

Compound: CC(O)CO (centres unmarked) [1,2-propanediol]
- Maximum concentration for robust growth [1]: 7.5%
- μ, mean [1, 2]: 0.701 h⁻¹
- μ, mean [1, 3]: 0.662 h⁻¹
- μ, mean [1, 4]: 0.595 h⁻¹
- μ, mean [1, 5]: 0.442 h⁻¹
- μ, mean [1, 6]: 0.406 h⁻¹
- μ, mean [1, 7]: 0.579 h⁻¹
- μ, mean [1, 8]: 0.000 h⁻¹
- tlag, mean [1, 9]: 0.9 h
- tlag, mean [1, 10]: 0.8 h
- tlag, mean [1, 11]: 0.8 h
- tlag, mean [1, 12]: 0.5 h
- tlag, mean [1, 13]: 2.3 h
- tlag, mean ([1]; lag time of K-12 MG1655, diol 7.5% (v/v)): 8.3 h

Compound: CSCC[C@H](N)C(=O)O [methionine, L-methionine]
- effect on growth of K-12 MG1655 in 2,3-butanediol (K-12 MG1655): significantly restored
- effect on growth of evolved strains in 1,2-propanediol (K-12 MG1655): did not have a significantly enhanced growth rate; also recorded: minimal effect
- effect on growth of the wild-type strain in 1,2-propanediol (K-12 MG1655): significantly restored; also recorded: restore growth of the wild-type strain
- effect on growth rate of evolved strains in 2,3-butanediol (K-12 MG1655): did not have a significantly enhanced growth rate increase

Compound: OCCCO [1,3-propanediol]
- tlag, mean (E. coli K-12 MG1655; [14]): 5.3 h
- μ, mean (E. coli K-12 MG1655; [14]): 0.670 h⁻¹
- tlag, mean (E. coli K-12 MG1655; [15]): 6.1 h
- μ, mean (E. coli K-12 MG1655; [15]): 0.686 h⁻¹
- tlag, mean (E. coli K-12 MG1655; [16]): 7.3 h
- μ, mean (E. coli K-12 MG1655; [16]): 0.603 h⁻¹
- tlag, mean (E. coli K-12 MG1655; [17]): 9.6 h
- μ, mean (E. coli K-12 MG1655; [17]): 0.463 h⁻¹
- tlag, mean (E. coli K-12 MG1655; [18]): 12.5 h
- μ, mean (E. coli K-12 MG1655; [18]): 0.277 h⁻¹
- tlag, mean (E. coli K-12 MG1655; [19]): 14.7 h
- μ, mean (E. coli K-12 MG1655; [19]): 0.201 h⁻¹
- tlag, mean (E. coli K-12 MG1655; [20]): 24.9 h
- μ, mean (E. coli K-12 MG1655; [20]): 0.118 h⁻¹
- growth inhibition of E. coli K-12 MG1655 (in words) (E. coli K-12 MG1655; variable concentrations, Growth Profiler): elicited growth inhibition

Compound: CCCC(O)CO (centres unmarked) [1,2-pentanediol]
- growth observed at maximum concentration [1]: 1%
- μ, mean [1, 2]: 0.524 h⁻¹
- μ, mean [1, 3]: 0.346 h⁻¹
- μ, mean [1, 4]: 0.000 h⁻¹
- μ, mean [1, 5]: 0.000 h⁻¹
- μ, mean [1, 6]: 0.000 h⁻¹
- μ, mean [1, 7]: 0.000 h⁻¹
- μ, mean [1, 8]: 0.000 h⁻¹
- tlag, mean [1, 9]: 0.4 h
- tlag, mean [1, 10]: 1.3 h

Source: patent publication US20190309309A1, “BACTERIAL CELLS WITH IMPROVED TOLERANCE TO POLYOLS” (DANMARKS TEKNISKE UNIVERSITET, priority 2016, published 2019)
